The values that follow come from patent US8017350B2, “Glimepiride- and insulin-induced glycosylphosphatidylinositol-specific phospholipase C regulation” (Sanofi-Aventis Deutschland GmbH, priority 2004, dated 2011).

The structures appear in SMILES notation.

Test [1] has as its target T1, bovine AChE (Bos taurus, UniProt P23795).
T1 construct: solubilized and partially purified bovine erythrocyte AChE; from tissue; host or cells: bovine erythrocytes
Kind of test: AChE activity. In kind it is biochemical. As to conditions: 50 μM. As for the experimental part:
Electroporation was performed as described in “Müller, G. et al., (2000) Mol. Cell. Biol. 20: 4708-4723”. Lipolysis was determined as release of glycerol or fluorescent NBD-FA from prelabeled and isoproterenol-stimulated adipocytes as described in “Müller, G. et al., (2003) Biochimie 85: 1245-1256”. Gce1 was detected by photolabeling of solubilized plasma membranes or hc/lcDIGs (10-50 μg protein) with 8-N3—[^32P]cAMP and subsequent phosphorimaging as described in “Müller, G. et al., (1994) Biochemistry 33: 12149-12159”. 5′-Nuc, aP and AChE activities were measured according to “Eliakim, R. et al., (1990) Biochim. Biophys. Acta 1355: 293-302”. Protein was determined using the BCA protein determination kit from Pierce (Rockford, Ill.) and BSA as calibration standard. SDS-PAGE was performed using precast gels (Novex, San Diego, Calif.; 10% Bis-Tris resolving gel, morpholinopropanesulfonic acid-SDS running buffer). Lumiimages were evaluated on a LumiImager using LumiImager software (Roche Diagnostics). Phosphor- and fluorescence images were processed and quantified using the Storm 860 PhosphorImager system (Molecular Dynamics, Gelsenkirchen, Germany). Figures were constructed using the ADOBE PHOTOSHOP software (Adobe Systems, Mountain View, Calif.).
FIG. 3: Selectivity of GPI-2350. […]

The test system of test [2] is pp59Lyn and Gce1 / caveolin-1 in hcDIGs of rat adipocytes. As to the kind of experiment: Dissociation of pp59Lyn and Gce1 from caveolin-1. The note with it: Adipocyte, FIG. 6 Panel B, read-out: IC50 for abrogation of losses from caveolin-1 immunoprecipitates. It is filed as cell-based. Here is the method: Solubilized DIGs (see above, 5-20 μg protein) were precleared by incubation with protein A/G-Sepharose and subsequent centrifugation (10,000×g, 5 min). The supernatant was incubated with anti-caveolin-1 antibodies (1:1000) preadsorbed on protein A/G-Sepharose in 1 ml of 10 mM Tris/HCl (pH 7.4), 150 mM NaCl, 1% TX-100 for 1 h at 4° C. The immune complexes were washed twice with the same buffer and then twice with buffer lacking TX-100 and finally subjected to SDS-PAGE performed in the absence of β-mercaptoethanol. The recovery of immunoprecipitated caveolin was normalized by homologous immunoblotting with anti-caveolin antibodies of the same blot following stripping of the membrane.
Next we investigated the putative causal relationship between dissociation from caveolin/activation and stimulus-dependent lipolytic cleavage of GPI-proteins in rat adipocytes by inhibiting GPI-PLC and subsequent analysis of the interaction with caveolin-1 of Gce1 and pp59^Lyn as well as kinase activity of the latter (FIG. 6). […] This potency is similar to GPI-PLC inhibition by GPI-2350 in intact adipocytes (FIG. 3). […]

By IC50 is commonly meant the point on the concentration scale where inhibition reaches its midpoint.

T1 sequence (P23795 31-614 isoform P23795-2 limits assumed): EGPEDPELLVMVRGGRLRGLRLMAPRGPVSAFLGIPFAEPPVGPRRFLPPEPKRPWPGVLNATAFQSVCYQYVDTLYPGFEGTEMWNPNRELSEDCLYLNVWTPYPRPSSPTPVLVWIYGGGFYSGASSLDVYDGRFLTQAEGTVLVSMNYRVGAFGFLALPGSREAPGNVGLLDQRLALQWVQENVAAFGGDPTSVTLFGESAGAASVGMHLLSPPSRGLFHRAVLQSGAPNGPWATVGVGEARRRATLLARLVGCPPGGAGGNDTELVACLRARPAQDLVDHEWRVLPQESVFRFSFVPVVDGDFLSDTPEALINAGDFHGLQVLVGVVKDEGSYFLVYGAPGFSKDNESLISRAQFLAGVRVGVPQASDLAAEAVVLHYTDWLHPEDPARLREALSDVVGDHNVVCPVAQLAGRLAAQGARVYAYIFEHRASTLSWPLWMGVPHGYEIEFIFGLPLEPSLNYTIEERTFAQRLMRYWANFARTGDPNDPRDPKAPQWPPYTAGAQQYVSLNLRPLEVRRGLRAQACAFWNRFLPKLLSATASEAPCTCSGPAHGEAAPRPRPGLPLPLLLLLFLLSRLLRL

For the compound `CCCCCCCCCCCCP1(=O)O[C@@H]2[C@H](O)[C@@H](O)[C@H](O)[C@@H](O)[C@@H]2O1` (some centres unmarked) [GPI-2350, myo-inositol-1,2-cyclo-dodecylphosphonic acid], the “effect on AChE” value in test [1] is on record as “not significantly affected”. The IC50 in test [2] lay within 5 to 10 µM.
